System: human myeloma cell line MM.1S
Assay: SILAC acetylated-lysine peptide profiling, HDAC inhibitor vs DMSO (light/heavy ratio)
Assay type: cell-based
Excerpt: An embodiment of the invention comprises utilizing the SILAC method in order to quantitate changes in protein expression between two or more populations of cells. The SILAC method is a technique based on mass spectrometry that detects differences in protein abundance among samples using non-radioactive isotopic labeling. The SILAC method is known in the art, and described in detail in Ong et al., “Stable Isotope Labeling by Amino Acids in Cell Culture, SILAC, as a Simple and Accurate Approach to Expression Proteomics”, Molecular & Cellular Proteomics, vol. 1, pp. 376-386 (2002), which is incorporated herein by reference in its entirety.
Briefly, the SILAC method involves growing two populations of cells in cell culture. The first population of cells is grown in growth media containing normal amino acids (“normal media”). The second population of cells is grown in media lacking a standard essential amino acid (such as lysine), but is then supplemented with a non-radioactive, isotopically labeled form of that essential amino acid (such as lysine labeled with ^13C atoms, rather than normal ^12C atoms), which is called “heavy media”. When the two populations of cells are each growing in the medium, they incorporate the amino acids into all of their proteins. The growth of cells maintained in the heavy media is no different from that in normal media. All peptides containing the heavy amino acids are heavier than their normal counterparts. The cells from each of the two populations of cells are lysed. The lysates from each of the two cell populations are then combined. The combined cell lysates are then analyzed by mass spectrometry. Pairs of chemically identical peptides of different stable isotope composition can be differentiated in a mass spectrometer due to their difference in mass. The ratio of peak intensities in the mass spectrum for such peptide pairs reflects the abundance ratio for the two proteins.
This example describes SILAC studies that were performed to compare the effects of three different HDAC inhibitors (Compound A, Compound B, and tubastatin A) to a control on a human multiple myeloma cell line. The HDAC inhibitors were also compared amongst themselves to determine differences in their effects.
A human myeloma cell line MM.1S was grown using either ^12C (light) or ^13C (heavy) lysine containing culture medium. The “heavy” cells were treated with DMSO as the control, and the “light” cells were treated with a single HDAC inhibitor at 37° C. for 6 hours. The heavy and light cells were lysed, and the lysates were mixed in 1:1 ratio and digested with the protease trypsin. The acetylated lysine containing peptides (due to the action of the HDAC inhibitor) in the digested peptide pool were captured by a non-specific anti-acetylated lysine antibody cocktail (the antibodies identify both light and heavy acetylated peptides), and subjected to mass spectrometry analysis in order to identify thousands of individual peptides.
Thousands of peptides were identified in pairs (^12C and ^13C) due to their known mass differences. The amino acid sequence and quantitative ratio (Light/Heavy) of a given peptide in two differentially treated cell lysates were then determined and annotated with their possible protein (gene) sources.
As stated above, three HDAC inhibitors (Compound A, Compound B, and Tubastatin A) were used. Thus, the SILAC method was performed three times, with a different HDAC inhibitor compared to a control each time. Accordingly, there are three pairs of quantitative data in the table below, i.e., Compound A:DMSO, Compound B:DMSO, and Tubastatin A:DMSO. A cut-off of 1.30 fold of change (increase or decrease) was then used to determine “changed” or “+” in the table, and any peptides with a fold of change less than 1.3 fold were determined to be “unchanged” or “0” in the table. Those peptides that were not identified were marked as “NA” in the table. […]

SMILES: O=C(NO)c1cnc(NC2(c3cccc(F)c3)CCCCC2)nc1 [Compound B, 2-((1-(3-fluorophenyl)cyclohexyl)amino)-N-hydroxypyrimidine-5-carboxamide]
- light to heavy ratio (L/H ratio) of acetylated peptide TNFSNEK(ac)TISK (SEQ ID NO: 357) (Acylphosphatase-2 [113], ACYP2, drug:DMSO): 0.84 log 2
- light to heavy ratio (L/H ratio), log 2 scale, acetylated peptide SELTGK(ac)FEK (SEQ ID NO: 778) (Annexin A5 [76], gene ANXA5, drug:DMSO): 0.00
- light to heavy ratio (L/H ratio) of acetylated peptide TKYEK(ac)SLYSMIK (SEQ ID NO: 270) (Annexin A6 [299], ANXA6, drug:DMSO): 0.00 log 2
- light to heavy ratio (L/H ratio) of acetylated peptide AINEAYK(ac)EDYHK (SEQ ID NO: 282) (Annexin A6 [478], ANXA6, drug:DMSO): 0.00 log 2
- light to heavy ratio (L/H ratio) of acetylated peptide NKPLFFADK(ac)LYK (SEQ ID NO: 298) (Annexin A6 [607], ANXA6, drug:DMSO): 0.00 log 2
- light to heavy ratio (L/H ratio) of acetylated peptide GAGTDEK(ac)TLTR (SEQ ID NO: 621) (Annexin A6 [620], gene ANXA6, inhibitor:DMSO): 0.00 log 2
- light to heavy ratio (L/H ratio), log 2 scale, acetylated peptide EFIEK(ac)YDK (SEQ ID NO: 779) (Annexin A6 [644], gene ANXA6, drug:DMSO): 0.00
- light to heavy ratio (L/H ratio) of acetylated peptide DDNGK(ac)PYVLPSVR (SEQ ID NO: 579) (Aspartate aminotransferase mitochondrial [73], gene GOT2, inhibitor:DMSO): 0.00 log 2
- light to heavy ratio (L/H ratio) of acetylated peptide LVGELK(ac)LDR (SEQ ID NO: 367) (Bactericidal/permeability-increasing protein [237], BPI, drug:DMSO): −0.52 log 2
- light to heavy ratio (L/H ratio) of acetylated peptide ELK(ac)EIQYGIR (SEQ ID NO: 540) (Branched-chain-amino-acid aminotransferase [337], gene BCAT2, inhibitor:DMSO): 0.00 log 2
- L/H ratio of acetylated peptide FYGDEEK(ac)[…] (SEQ ID NO: 25) (CALR [62], log 2 scale, drug vs DMSO): 0.00
- light to heavy ratio (L/H ratio) of acetylated peptide AGLQVYNK(ac)CWK (SEQ ID NO: 260) (CD59 glycoprotein [63], CD59, drug:DMSO): 0.00 log 2
- L/H ratio of acetylated peptide (CHAFEK(ac)[…] (SEQ ID NO: 425), NADH dehydrogenase [ubiquinone] iron-sulfur protein 5 [38], NDUFS5): −0.63 log 2
- L/H ratio of acetylated peptide […](ac)R (SEQ ID NO: 26) (CLTC [637], log 2 scale, drug vs DMSO): 0.00
- L/H ratio of acetylated peptide FK(ac)ESFAEMNR (SEQ ID NO: 1) (COX4I1 [87], log 2 scale, drug vs DMSO): −0.67
- L/H ratio of acetylated peptide […](ac)QLCTIPR (SEQ ID NO: 27) (CREBBP [1216], log 2 scale, drug vs DMSO): 0.00
- L/H ratio of acetylated peptide TNK(ac)NK(ac)SSISR (SEQ ID NO: 13) (CREBBP [1595:1597], log 2 scale, drug vs DMSO): 0.62
- L/H ratio of acetylated peptide ALK(ac)DLYCHK (SEQ ID NO: 28) (CREM [240], log 2 scale, drug vs DMSO): 0.00
- L/H ratio of acetylated peptide LYCPK(ac)CMDVYTPK (SEQ ID NO: 29) (CSNK2B [139], log 2 scale, drug vs DMSO): 0.00
- light to heavy ratio (L/H ratio) of acetylated peptide NSFDCFK(ac)K (SEQ ID NO: 605) (Calcium-binding mitochondrial carrier protein Aralar2 [379], gene SLC25A13, inhibitor:DMSO): 0.00 log 2
- light to heavy ratio (L/H ratio) of acetylated peptide FVLSSGK(ac)FYGDEEKDK (SEQ ID NO: 281) (Calreticulin [55], CALR, drug:DMSO): 0.00 log 2
- light to heavy ratio (L/H ratio) of acetylated peptide NVLINK(ac)DIR (SEQ ID NO: 257) (Calreticulin [159], CALR, drug:DMSO): 0.00 log 2
- light to heavy ratio (L/H ratio) of acetylated peptide […](ac)GLLK (SEQ ID NO: 569) (Chloride intracellular channel protein 1 [131], gene CLIC1, inhibitor:DMSO): 0.00 log 2
- light to heavy ratio (L/H ratio) of acetylated peptide SMSTEGLMK(ac)FVDSK (SEQ ID NO: 330) (Citrate synthase mitochondrial [459], CS, drug:DMSO): 0.76 log 2
- light to heavy ratio (L/H ratio), log 2 scale, acetylated peptide MIYASSK(ac)DAIKK (SEQ ID NO: 763) (Cofilin-1 [121], gene CFL1, drug:DMSO): 0.00
- light to heavy ratio (L/H ratio) of acetylated peptide AAEEVEAK(ac)FK (SEQ ID NO: 328) (Coiled-coil-helix-coiled-coil-helix domain-containing protein 3 mitochondrial [173], CHCHD3, drug:DMSO): −0.42 log 2
- light to heavy ratio (L/H ratio) of acetylated peptide ASEIGEK(ac)YR (SEQ ID NO: 586) (Conserved hypothetical protein [484], gene KIAA0947, inhibitor:DMSO): 0.00 log 2
- light to heavy ratio (L/H ratio) of acetylated peptide DHCVAHK(ac)LFNNLK (SEQ ID NO: 608) (Cytochrome b-c1 complex subunit 6 mitochondrial [85], gene UQCRH, inhibitor:DMSO): 0.00 log 2
- light to heavy ratio (L/H ratio) of acetylated peptide YFDEK(ac)IAK (SEQ ID NO: 563) (D-beta-hydroxybutyrate dehydrogenase mitochondrial [280], gene BDH1, inhibitor:DMSO): 0.00 log 2
- L/H ratio of acetylated peptide FK(ac)[…] (SEQ ID NO: 30) (DAZAP1 [59], log 2 scale, drug vs DMSO): 0.00
- L/H ratio of acetylated peptide APTIVGK(ac)SSLNPILFR (SEQ ID NO: 31) (DDOST [189], log 2 scale, drug vs DMSO): 0.00
- L/H ratio of acetylated peptide DWVLNEFK(ac)HGK (SEQ ID NO: 33) (DDX5 [388], log 2 scale, drug vs DMSO): 0.00

Reference: patent US20140357512A1, “HISTONE DEACETYLASE (HDAC) BIOMARKERS IN MULTIPLE MYELOMA” (priority 2013, published 2014)
